Experimental data published in paper PMC6522941, “Design, synthesis, and anticancer evaluation of novel quinoline derivatives of ursolic acid with hydrazide, oxadiazole, and thiadiazole moieties as potent MEK inhibitors” (Journal of Enzyme Inhibition and Medicinal Chemistry, 2019).

Key:
HeLa cells [1] = assay: Cell cycle analysis (PI staining, flow cytometry); format: cell-based, human; conditions: 0.2 μM, 48 h
Experimental: Cell cycle distributions in HeLa cells were determined through PI staining and analysed by flow cytometry. HeLa cells were seeded into a six-well plate at 5 × 10^5 cell/mL and treated with different concentrations of compound 4d for 48 h. After treatment, cells were detached with 0.25% trypsin, harvested by centrifugation, washed twice with ice-cold PBS and then fixed and permeabilised with ice-cold 70% ethanol at 4 °C overnight. Ethanol was removed and the cells were washed twice with ice-cold PBS. After this, the cells were treated with 100 μL of RNase (100 μg/mL) at 37 °C for 30 min, followed by incubation with 400 μL of DNA staining solution propidium iodide (PI) (1 mg/mL) in the dark at 4 °C for 30 min. The samples were analysed by a flow cytometer (Becton-Dickinson FACSCalibur, Totowa, NJ, USA) and data were analysed using the FlowJo software (Becton-Dickinson & Co, Totowa, NJ, USA).
Cell cycle distribution in HeLa cells was examined to determine whether or not compound 4d inhibited the proliferation of these cells through cell cycle arrest. HeLa cells were treated with different concentrations of compound 4d (0, 0.05, 0.1, and 0.2 μM) for 48 h. Cell cycle distribution was investigated by flow cytometric analysis after staining the DNA of the treated cells by PI. […] This phenomenon was accompanied by a decrease in the population of cells in G2/M phase.

MEK1 = biological target: T1, MEK1 (Homo sapiens, UniProt Q02750); assay: In vitro MEK1 kinase assay (ADP-Glo); format: biochemical; conditions: recombinant GST-MEK1, GST-ERK2 (inactive) substrate, 10 μM ATP
T1 construct: purchased Carna Biosciences, Kobe, Japan
Experimental: An in vitro kinase assay of MEK1 was performed using ADP-Glo kinase assay (Promega, Madison, WI, USA) according to the manufacturer’s protocol. […] Reactions were stopped by adding 5 μL of ADP-Glo reagent to each well. After incubating at 22 °C for 40 min, 10 μL of the kinase detection reagent was added and the plates were incubated for another 30 min at 22 °C in the dark. The reaction mixture was analysed by EnSpire (PerkinElmer, Waltham, MA, USA).
The Raf/MEK/ERK pathway is the downstream of Ras activation, and the abnormal expression or phosphorylation of the associated proteins is essential for cancer cell proliferation. In this pathway, MEK kinase is an important anticancer target because of its key roles in regulating the cancer cell apoptosis and oncogenic transformation[51]^,[52]. Among MEK proteins, MEK1 and MEK2 are known as substrate-specific kinases which phosphorylate their downstream kinase ERK1/2.

HeLa cells [2] = assay: ROS generation assay (DCFH-DA); format: cell-based, human; conditions: 0.2 μM, 48 h
Experimental: ROS generation assay was performed by using the reactive oxygen species assay kit (Beyotime Biotech., Nantong, China). Intracellular ROS generation was tested through dichlorodihydro fluorescein diacetate (DCFH-DA) assay. DCFH-DA is taken up by HeLa cells, and then activated by esterase-mediated cleavage of acetate to form DCFH, which is trapped in the cells. DCFH is converted to fluorescein DCF in the presence of ROS. HeLa cells were seeded in six-well plates and incubated with different concentrations of compound 4d for 48 h. After removing the compound solution, cells were treated with 10 μM of DCFH-DA at 37 °C for 20 min. Subsequently, the cells were washed with PBS for three times and then exposed to light. Immediately after light exposure, the fluorescence intensity of dichlorofluorescein (DCF) was measured with excitation at 488 nm and emission at 525 nm by a flow cytometry (Becton-Dickinson FACSCalibur, Totowa, NJ, USA).
ROS has been reported to be involved in early stages of apoptosis in many cellular systems. […] HeLa cells were exposed to compound 4d at 0 ∼ 0.2 μM concentrations for 48 h and the intracellular fluorescence intensity was quantitatively analysed by flow cytometry. […]

HeLa cells [3] = assay: MTT cytotoxic assay, HeLa; format: cell-based; conditions: Homo sapiens, 72 h
Experimental: (§1) Human breast cancer cell line (MDA-MB-231), cervical carcinoma cell line (HeLa), the liver cancer cell line (SMMC-7721) and normal hepatocyte cell line (QSG-7701) were maintained in Dulbecco Modified Eagle Medium (DMEM) containing 4.0 mM L-Glutamine and 4500 mg/L Glucose supplemented with 10% (v/v) foetal bovine serum (FBS) and 100 U/mL penicillin/streptomycin at 37 °C in humidified atmosphere of 5% CO2 and 95% air.
(§2) Exponentially growing MDA-MB-231, Hela and SMMC-7721 cell lines were seeded into 96-well plate for 100 μL and treated with different concentrations of the synthetic compounds for 72 h, and then 10 μL of MTT (10 mg/mL) was added and incubation for 3 ∼ 4 h at 37 °C. The generated purple formazan crystals from viable can be dissolved by adding 100 μL DMSO. The plates were swirled gently for 5 min and quantified by measuring the OD of the plates at the wavelength of 540 nm. Each concentration was repeated in three wells and the same experimental condition was provided for all compounds. The results were expressed as IC50 values with standard deviations, which was defined as the concentration at which 50% survival of cells was discerned. Etoposide was co-assayed as positive control.
(§3) The in vitro cytotoxic activity of derivatives 3a–d, 4a–h, 5a–h, and 6a–h were evaluated by MTT assay against human breast cancer cell line (MDA-MB-231), cervical carcinoma cell line (HeLa), hepatocarcinoma cell line (SMMC-7721) and human normal hepatocyte cell line (QSG-7701). The anticancer drug etoposide was co-assayed as the positive control. All tested compounds were dissolved in DMSO and the stock solutions were diluted by DMEM medium before treatment of the cultured cells.

MDA-MB-231 cells = assay: MTT cytotoxic assay, MDA-MB-231; format: cell-based, human; conditions: Homo sapiens, MDA-MB-231, 72 h
Experimental: as §1, §2, §3

T1 sequence (Q02750 whole entry): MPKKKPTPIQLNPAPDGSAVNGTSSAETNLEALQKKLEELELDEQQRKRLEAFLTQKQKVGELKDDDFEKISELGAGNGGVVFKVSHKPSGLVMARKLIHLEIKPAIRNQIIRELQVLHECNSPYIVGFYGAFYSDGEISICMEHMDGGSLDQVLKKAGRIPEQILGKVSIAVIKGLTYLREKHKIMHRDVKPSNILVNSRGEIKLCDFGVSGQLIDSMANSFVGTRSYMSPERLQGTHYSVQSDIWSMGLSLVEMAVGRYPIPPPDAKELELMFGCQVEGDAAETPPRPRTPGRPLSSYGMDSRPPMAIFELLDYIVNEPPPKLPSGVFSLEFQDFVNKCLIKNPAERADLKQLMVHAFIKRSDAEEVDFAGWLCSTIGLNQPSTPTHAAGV

CC(=O)NNC(=O)C12CCC(C)C(C)C1C1=CCC3C4(C)Cc5cc6cc(Cl)ccc6nc5C(C)(C)C4CCC3(C)C1(C)CC2 (stereo not shown) [Compound 4d, N-[5′-chloro-ursa-12-en-(2,3)-quinoline-28-oyl]-acetohydrazide]
population of cells in G2/M phase (HeLa cells [1]; control 25.95): 8.51% | population of cells in G0/G1 phase (HeLa cells [1]; control 48.32): 63.75% | IC50 (MEK1): 64 nM | increase of mean fluorescence intensity compared to the control group (HeLa cells [2]): 84% | % relative ROS raised cells (HeLa cells [2]; control 13.18): 49.66% | IC50 (HeLa cells [3]): 0.08 ± 0.01 µM | IC50 (MDA-MB-231 cells): 0.12 ± 0.01 µM
